For assay [1], the target named is T1, Adrenergic α2c receptor (Homo sapiens, UniProt P18825).
T1 construct: purchased PerkinElmer
T1 sequence (P18825 1-462): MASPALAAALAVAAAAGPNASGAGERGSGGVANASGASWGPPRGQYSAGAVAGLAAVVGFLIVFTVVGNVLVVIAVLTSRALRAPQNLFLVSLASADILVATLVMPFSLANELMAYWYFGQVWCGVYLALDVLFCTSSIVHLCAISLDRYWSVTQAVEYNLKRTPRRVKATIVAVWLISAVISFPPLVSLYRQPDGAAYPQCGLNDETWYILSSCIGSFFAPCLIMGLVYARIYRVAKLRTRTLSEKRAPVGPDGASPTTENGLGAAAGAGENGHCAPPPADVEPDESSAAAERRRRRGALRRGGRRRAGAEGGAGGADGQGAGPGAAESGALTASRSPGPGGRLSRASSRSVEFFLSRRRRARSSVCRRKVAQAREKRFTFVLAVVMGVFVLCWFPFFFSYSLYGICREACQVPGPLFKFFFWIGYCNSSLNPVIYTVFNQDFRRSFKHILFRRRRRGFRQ
The assay is described as follows: Adrenergic α2c receptor binding, [3H]MK-912. As to conditions: 0.08 nM [3H]MK-912; read-out: Off-target binding Adrenergic α2c, IC50. As for the experimental part:
H) 6.86 [d, J = 8.67 Hz, 2 H]; MS [ESI/APCI Dual) [Positive) m/z; 381(M+H)+ ) .
Off-target binding of compounds
The membrane preparations were made from Jurkat cell lines, and were incubated in sigma 1 binding buffer (0.1% bovine serum albumin in 50 mM Tris, pH7.4) containing 4 nM [3H]pentazocine (PerkinElmer), and serial concentrations of the compound at 25°C for 2.5 h. The reaction was terminated by rapid filtration through a 96-well GF/C filter plate presoaked in 0.5% polyethyleneimine.
The filters were washed with ice-cold 50 mM Tris (pH7.4) three times, dried, and filled with Microscint-o. The radioactivity retained on the filter was counted using a TopCount NXT. Nonspecific binding was determined as the amount of radioactivity under the above-mentioned conditions in the presence of […] of haloperidol. The IC50 values were determined by nonlinear curve-fitting of the concentration-response data for each compound using Origin version 6.1087 (OriginLab Corporation, […]
Adrenergic 2c receptor binding
Human 2c receptor-expressing membrane preparations were purchased from PerkinElmer. The membranes were incubated in binding buffer (1 mM EDTA and 0.1% bovine serum albumin in 50 mM Tris, pH7.4) containing 0.08 nM [3H]MK-912 (PerkinElmer), and serial concentrations of the compound at 25°C for 1 h. The reaction was terminated by rapid filtration through a 96-well GF/C filter plate presoaked in 0.5% polyethyleneimine. […] The radioactivity retained on the filter was counted using a TopCount NXT. Nonspecific binding was determined as the amount of radioactivity under the conditions mentioned above in the presence of […] of rauwolscine. The IC50 values were determined as for sigma 1 receptor binding. […]
The reaction was terminated by rapid filtration through a 96-well GF/C filter plate presoaked in 0.5% polyethyleneimine. […] The radioactivity retained on the filter was counted using a TopCount NXT. Nonspecific binding was determined as the amount of radioactivity under the above-mentioned conditions in the presence of 1 µM of atropine.

Assay [2] deals with Benzodiazepine (central). The assay is described as follows: Off-target binding (Cerep). Further details: unit of the concentration uncertain. From the text:
(§1) Off-target binding of compounds assessed using an in-house assay (M4) and a commercial battery (all
(§2) others) (Cerep, Celle L'Evescault, France).
(§3) Concentration % Inhibition Concentration % Inhibition Concentration % Inhibition […]

In assay [3] the test system is Ca2+ channel (L, dihydropyridine site). Briefly: Off-target binding (Cerep). Further details: unit of the concentration uncertain.
Description: as §1, §2, §3

The target of assay [4] is T2, monkey H3Rs (Macaca mulatta, UniProt Q865E1).
T2 construct: Rat cerebral cortex and monkey frontal cortex were dissected; from tissue; host or cells: monkey frontal cortex membranes
Briefly: In vitro binding to H3Rs, monkey frontal cortex membranes, [^3H]N-α-methylhistamine. The settings on record: 1 nM [^3H]N-α-methylhistamine, geometric mean, n = 3, read-out: Affinity for H3Rs Monkey, IC50. The procedure: Rat cerebral cortex and monkey frontal cortex were dissected, homogenized with 50 mM Tris buffer (pH 7.4) containing 5 mM EDTA and Protease Inhibitor Cocktail Tablets (Roche Diagnostics, Indianapolis, IN) and centrifuged at 48,000×g for 15 min at 4 °C. The pellets were then suspended in binding buffer (50 mM Tris containing 5 mM EDTA, pH 7.4) and stored at −80 °C as membrane preparations.
The membrane preparations were thawed and incubated in the binding buffer containing 0.1 % bovine serum albumin, 1 nM [^3H]N-α-methylhistamine (PerkinElmer, Waltham, MA) with various concentrations of a dihydroquinolinone derivative (i.e., test compound) at 25 °C for 1 h. The reaction was terminated by rapid filtration through 96-well GF/C filter plates (PerkinElmer) presoaked with 0.5 % polyethyleneimine (Wako, Osaka, Japan). After washes with ice-cold binding buffer, the plates were dried and filled with Microscint-o (PerkinElmer). The radioactivity retained on the filters was counted using a TopCount NXT (PerkinElmer). Total and nonspecific radioligand binding was determined by reaction without and with 10 μM thioperamide and clobenpropit, respectively. The specific radioligand binding was then calculated by subtracting the nonspecific binding from the total binding. The IC50 value for inhibition of the radioligand binding by the test compound was determined using a nonlinear fit of the concentration-response curve for each test compound using SAS 9.2 (SAS Institute Inc., Cary, NC). Data were expressed as the geometric means of IC50 values from three independent experiments run in duplicate.

The test system of assay [5] is K+ channel SKCa. Briefly: Off-target binding (Cerep). Further details: unit of the concentration uncertain.
Description: (§4) Off-target binding of compounds assessed using an in-house assay (M4) and a commercial battery (all others) (Cerep, Celle L'Evescault, France).
as §3
(§5) *1α -amino-3-hydroxy-5-methyl-4-isoxazolepropionic acid receptor; *2N-methyl-D-aspartate receptor; *3Strychnine-insensitive glycine-binding module of NMDA receptor; *4Phencyclidine-binding site of NMDA receptor; *5ATP-sensitive potassium channel; *6Voltage-dependent potassium channel; *7small conductance calcium-activated potassium channel; *85-hydroxytryptamine 1A receptor

Assay [6] deals with Glutamate AMPA. Briefly: Off-target binding (Cerep). Further details: unit of the concentration uncertain.
Description: as §4, §3, §5

Assay [7] has as its system K+ channel KV. Briefly: Off-target binding (Cerep). Further details: unit of the concentration uncertain.
Description: as §4, §3, §5

The test system of assay [8] is Glutamate NMDA. The assay is described as follows: Off-target binding (Cerep). Further details: unit of the concentration uncertain.
Description: as §4, §3, §5

Assay [9] concerns K+ channel KATP. The assay is described as follows: Off-target binding (Cerep). Further details: unit of the concentration uncertain.
Description: as §4, §3, §5

Where [10] appears, read: Concentration 1 (unit uncertain).
The mark [11] stands for this setting: Concentration 10 (unit uncertain).

T2 sequence (Q865E1 1-445): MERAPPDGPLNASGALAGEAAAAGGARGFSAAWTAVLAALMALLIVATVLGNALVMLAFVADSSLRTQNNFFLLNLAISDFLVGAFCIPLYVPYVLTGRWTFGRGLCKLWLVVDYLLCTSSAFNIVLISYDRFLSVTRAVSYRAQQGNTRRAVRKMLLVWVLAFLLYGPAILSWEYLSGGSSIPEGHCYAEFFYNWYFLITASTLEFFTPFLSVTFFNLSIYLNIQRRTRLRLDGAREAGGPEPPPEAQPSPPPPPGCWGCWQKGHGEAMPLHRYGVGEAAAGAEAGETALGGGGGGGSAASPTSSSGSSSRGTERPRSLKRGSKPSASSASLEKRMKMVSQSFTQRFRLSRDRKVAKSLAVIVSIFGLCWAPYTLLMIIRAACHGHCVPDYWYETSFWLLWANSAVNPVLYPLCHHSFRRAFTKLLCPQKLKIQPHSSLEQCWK

A word on the IC50: it is the concentration needed to halve the response being measured. By % Inhibition is commonly meant the relative decrease from the control value, in per cent. Take `COc1ccc(N2C(=O)CCc3cc(OC4CCN(C5CCC5)CC4)ccc32)cc1` [TASP0434988, 6-[(1-cyclobutylpiperidin-4-yl)oxy]-1-(4-methoxyphenyl)-3,4-dihydroquinolin-2(1H)-one]: the IC50 amounted to 528 nM in assay [1] and 0.565 nM in assay [4]. Further, the “% Inhibition” value in assay [2] (setting [10]) is on record as -2%; in assay [3] (setting [10]) it was -27%; in assay [5] (setting [10]), -2%; in assay [6] (setting [10]), 0%; in [7] (setting [10]) it was -1%; in assay [8] (setting [10]) it was -7%. In assay [9] (setting [10]), the “% Inhibition” value was -4%.

`COc1ccc(N2C(=O)CCc3cc(OCCCN4CCC[C@H]4C)ccc32)cc1` [TASP0390136, 1-(4-methoxyphenyl)-6-{3-[(2R)-2-methylpyrrolidin-1-yl]propoxy}-3,4-dihydroquinolin-2(1H)-one]: the results for the IC50 in assay [1] and in [4] were greater than 1000 nM and 1.06 nM, respectively. Moreover, the “% Inhibition” value in assay [2] (setting [11]) is reported as -19%; in assay [3] (setting [11]), 20%; in [5] (setting [11]), 7%; in assay [6] (setting [11]) it was -18%; in assay [7] (setting [11]) it was -15%; in assay [8] (setting [11]), -2%. Also, the “% Inhibition” value in assay [9] (setting [11]) worked out at 22%.

As to `COc1ccc(N2C(=O)CCc3cc(OC4CCN(C5CCC5)CC4)ccc32)cn1` [TASP0410457, 6-[(1-Cyclobutylpiperidin-4-yl)oxy]-1-(6-methoxypyridin-3-yl)-3,4-dihydroquinolin-2(1H)-one], the values for the concentration for half-maximal inhibition (IC50) in [1] and in assay [4] were greater than 1000 nM and 1.8 nM, respectively. The “% Inhibition” value in [2] (setting [11]) is given as -4%; in assay [3] (setting [11]) it was -23%; in assay [5] (setting [11]) it was -1%; in [6] (setting [11]), 1%; in assay [7] (setting [11]), -11%; in assay [8] (setting [11]), 11%. In assay [9] (setting [11]), the “% Inhibition” value stood at 5%.

The record behind these values is PMC4747952, “Development of TASP0410457 (TASP457), a novel dihydroquinolinone derivative as a PET radioligand for central histamine H3 receptors” (EJNMMI Research, 2016).
